14 compounds from patent US8680108B2, “Substituted fused aryl and heteroaryl derivatives as PI3K inhibitors” (Incyte Corporation, priority 2009, dated 2014) can be followed below.

For one experiment, the target named is T1, PI3Kδ (p110δ/p85α) (Homo sapiens, UniProt O00329).
T1 construct: purchased Millipore (Bedford, Mass.)
The experiment can be described thus: PI3Kδ scintillation proximity assay. Format: biochemical. The method, boiled down: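 IC50 was fitted to percent control activity against log concentration, from scintillation proximity counting of 33P-labelled lipid product captured on WGA beads after an EDTA quench. Reactions ran 210 minutes at room temperature: 4 nM PI3Kδ (p110δ/p85α), 20 μM PIP2, 20 μM ATP, pH 6.7 MOPS buffer, 0.5% DMSO.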

In experiment [1] the test system is Pfeiffer cell line (diffuse large B cell lymphoma). The experiment is described as follows: Pfeiffer cell proliferation assay. Format: cell-based. The procedure: Pfeiffer cell line (diffuse large B cell lymphoma) was purchased from ATCC (Manassas, Va.) and maintained in the culture medium recommended (RPMI and 10% FBS). To measure the anti-proliferation activity of the compounds, the Pfeiffer cells were plated with the culture medium (2×10^3 cells/well/per 200 μl) into 96-well ultra-low binding plates (Corning, Corning, N.Y.), in the presence or absence of a concentration range of test compounds. […]

Setting [2] is: Homo sapiens, Pfeiffer, first of two isolated isomers.
[3] abbreviates: Homo sapiens, Pfeiffer, second of two isolated isomers.

Where two headings read alike, the source gives them in different places.

T1 sequence (O00329 whole entry): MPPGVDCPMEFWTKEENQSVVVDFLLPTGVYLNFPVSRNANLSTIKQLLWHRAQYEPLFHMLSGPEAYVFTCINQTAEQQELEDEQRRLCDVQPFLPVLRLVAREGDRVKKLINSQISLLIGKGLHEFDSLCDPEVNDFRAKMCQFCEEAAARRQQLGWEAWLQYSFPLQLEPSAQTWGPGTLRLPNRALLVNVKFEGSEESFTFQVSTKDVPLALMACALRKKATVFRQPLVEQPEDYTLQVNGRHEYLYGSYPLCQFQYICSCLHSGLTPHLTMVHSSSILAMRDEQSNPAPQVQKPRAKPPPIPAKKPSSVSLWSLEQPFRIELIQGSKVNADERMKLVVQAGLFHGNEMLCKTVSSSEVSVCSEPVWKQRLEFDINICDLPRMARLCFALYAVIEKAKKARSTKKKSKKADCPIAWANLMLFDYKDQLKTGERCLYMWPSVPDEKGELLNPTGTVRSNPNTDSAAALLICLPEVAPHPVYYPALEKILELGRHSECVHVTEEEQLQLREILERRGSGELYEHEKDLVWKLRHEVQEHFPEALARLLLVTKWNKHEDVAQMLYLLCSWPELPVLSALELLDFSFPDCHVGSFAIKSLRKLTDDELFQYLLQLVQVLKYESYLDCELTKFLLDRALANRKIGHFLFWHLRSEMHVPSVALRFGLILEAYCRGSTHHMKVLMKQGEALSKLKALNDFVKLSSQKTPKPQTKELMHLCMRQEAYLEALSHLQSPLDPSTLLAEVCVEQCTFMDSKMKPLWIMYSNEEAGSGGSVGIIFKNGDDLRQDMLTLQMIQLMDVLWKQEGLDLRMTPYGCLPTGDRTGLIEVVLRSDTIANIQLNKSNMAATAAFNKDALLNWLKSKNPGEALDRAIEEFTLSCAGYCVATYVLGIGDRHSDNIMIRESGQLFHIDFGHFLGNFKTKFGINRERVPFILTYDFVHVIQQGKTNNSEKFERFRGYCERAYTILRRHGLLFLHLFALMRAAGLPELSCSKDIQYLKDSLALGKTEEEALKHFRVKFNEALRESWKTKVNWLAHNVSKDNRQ
T1 sequence (P27986 whole entry partner): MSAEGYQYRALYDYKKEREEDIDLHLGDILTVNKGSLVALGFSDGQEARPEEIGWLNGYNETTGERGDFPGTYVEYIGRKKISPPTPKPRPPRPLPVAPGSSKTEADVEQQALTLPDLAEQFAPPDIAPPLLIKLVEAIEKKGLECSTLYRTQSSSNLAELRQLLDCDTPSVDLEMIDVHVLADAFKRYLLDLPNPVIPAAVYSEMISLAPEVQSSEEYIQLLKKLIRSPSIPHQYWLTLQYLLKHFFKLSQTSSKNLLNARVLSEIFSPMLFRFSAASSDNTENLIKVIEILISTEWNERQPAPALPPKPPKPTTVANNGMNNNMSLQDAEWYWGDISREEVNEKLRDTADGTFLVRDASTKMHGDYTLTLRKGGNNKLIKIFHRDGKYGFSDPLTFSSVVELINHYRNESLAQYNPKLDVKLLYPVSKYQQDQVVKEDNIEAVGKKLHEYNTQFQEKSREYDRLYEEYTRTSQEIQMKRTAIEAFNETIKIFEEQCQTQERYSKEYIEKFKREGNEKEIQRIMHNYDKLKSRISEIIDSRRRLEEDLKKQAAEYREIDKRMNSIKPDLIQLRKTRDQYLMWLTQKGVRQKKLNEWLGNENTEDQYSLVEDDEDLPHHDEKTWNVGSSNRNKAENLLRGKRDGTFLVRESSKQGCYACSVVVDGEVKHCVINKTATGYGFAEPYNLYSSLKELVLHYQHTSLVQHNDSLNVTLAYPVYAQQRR

`CC(Nc1ncnc2[nH]cnc12)c1cc(Cl)c2cccnc2c1N1CCCC(CO)C1` (stereo not drawn) [Example 63, (1-{5-Chloro-7-[1-(9H-purin-6-ylamino)ethyl]quinolin-8-yl]piperidin-3-yl)methanol tris(trifluoroacetate)]: the IC50 against PI3Kδ (p110δ/p85α) (separated isomer, 1st peak) is 100 to 250 nM; on PI3Kδ (p110δ/p85α) (separated isomer, 2nd peak), 100 to 250 nM; in experiment [1] (setting [2]), greater than 1000 nM; in experiment [1] (setting [3]) it was greater than 1000 nM.
For the compound `CC(Nc1ncnc2[nH]cnc12)c1cc(F)c2cccnc2c1N1CC[C@@H](O)C1` (stereo partly drawn) [Example 53, (3R)-1-{5-fluoro-7-[1-(9H-purin-6-ylamino)ethyl]quinolin-8-yl}pyrrolidin-3-ol], the IC50 at PI3Kδ (p110δ/p85α) (separated isomer, 1st peak) was greater than 1000 nM; at PI3Kδ (p110δ/p85α) (separated isomer, 2nd peak), 100 to 250 nM; in experiment [1] (setting [3]), 250 to 500 nM.
In the same order, the values of `CC(Nc1ncnc2[nH]cnc12)c1cc(Cl)c2cccnc2c1N1CC[C@H](NS(C)(=O)=O)C1` (stereo partly drawn) [Example 80, N-((3S)-1-{5-Chloro-7-[1-(9H-purin-6-ylamino)ethyl]quinolin-8-yl}pyrrolidin-3-yl)methanesulfonamide tris(trifluoroacetate)] are 250 to 500 nM, less than 50 nM and 100 to 250 nM.
Take `CC(Nc1ncnc2[nH]cnc12)c1cc(Cl)c2cccnc2c1N1CCC(Oc2ccccc2)CC1` (stereo not drawn) [Example 75, N-{1-[5-Chloro-8-(4-phenoxypiperidin-1yl)quinolin-7-yl]ethyl}-9H-purin-6-amine bis(trifluoroacetate)]: the results for the concentration for half-maximal inhibition (IC50) (on PI3Kδ (p110δ/p85α); in experiment [1] (setting [3])) were greater than 1000 nM and 250 to 500 nM, respectively.
For `COC(=O)N[C@H]1CCN(c2c(C(C)Nc3ncnc4[nH]cnc34)cc(Cl)c3cccnc23)C1` (stereo partly drawn) [Example 79, Methyl((3S)-1-{5-Chloro-7-[1-(9H-purin-6-ylamino)ethyl]quinolin-8-yl}pyrrolidin-3-yl)carbamate tris(trifluoroacetate)], the 50% inhibitory concentration (IC50) against PI3Kδ (p110δ/p85α) (separated isomer, 1st peak) is 50 to 100 nM; against PI3Kδ (p110δ/p85α) (separated isomer, 2nd peak), less than 50 nM; in experiment [1] (setting [2]), 250 to 500 nM; in experiment [1] (setting [3]) it was 100 to 250 nM.
In the same order, the values of `COC1CCCN(c2c(C(C)Nc3ncnc4[nH]cnc34)cc(Cl)c3cccnc23)C1` (stereo not drawn) [Example 67, N-{1-[5-Chloro-8-(3-methoxypiperidin-1-yl)quinolin-7-yl]ethyl}-9H-purin-6-amine tris(trifluoroacetate)] are 100 to 250 nM, 250 to 500 nM, 100 to 250 nM and 100 to 250 nM.
In the same order, the values of `CC(Nc1ncnc2[nH]cnc12)c1cc(Cl)c2cccnc2c1N1CCC[C@H](O)C1` (stereo partly drawn) [Example 48, (3S)-1-{5-Chloro-7-[1-(9H-purin-6-ylamino)ethyl]quinolin-8-yl}piperidin-3-ol] are less than 50 nM, greater than 1000 nM, greater than 1000 nM and greater than 1000 nM.
For the compound `CC(C)C(=O)N[C@H]1CCN(c2c(C(C)Nc3ncnc4[nH]cnc34)cc(Cl)c3cccnc23)C1` (stereo partly drawn) [Example 78, N-((3S)-1-{5-Chloro-7-[1-(9H-purin-6-ylamino)ethyl]quinolin-8-yl}pyrrolidin-3-yl)-2-methylpropanamide tris(trifluoroacetate)], the IC50 was greater than 1000 nM against PI3Kδ (p110δ/p85α) (separated isomer, 1st peak); less than 50 nM against PI3Kδ (p110δ/p85α) (separated isomer, 2nd peak); 500 to 1000 nM in experiment [1] (setting [3]).
For `Cc1cc(C(C)Nc2ncnc3[nH]cnc23)c(-c2cccc(F)c2)c2nnccc12` (single isomer, unassigned) [Example 37, N-{1-[8-(3-fluorophenyl)-5-methylcinnolin-7-yl]ethyl}-9H-purin-6-amine], the IC50 (against PI3Kδ (p110δ/p85α); in experiment [1] ([3H]-thymidine incorporation)) was 500 to 1000 nM each time.
For `COC1CCN(c2c(C(C)Nc3ncnc4[nH]cnc34)cc(Cl)c3cccnc23)C1` (stereo not drawn) [Example 68, N-{1-[5-Chloro-8-(3-methoxypyrrolidin-1-yl)quinolin-7-yl]ethyl}-9H-purin-6-amine tris(trifluoroacetate)], the IC50 against PI3Kδ (p110δ/p85α) (separated isomer, 1st peak) is 50 to 100 nM; at PI3Kδ (p110δ/p85α) (separated isomer, 2nd peak), less than 50 nM; in experiment [1] (setting [2]) it was 100 to 250 nM; in experiment [1] (setting [3]), 50 to 100 nM.
With `Cc1cc(C(C)Nc2ncnc3[nH]cnc23)c(-c2cccc(F)c2)c2nnccc12` (single isomer, unassigned) [Example 36, N-{1-[8-(3-fluorophenyl)-5-methylcinnolin-7-yl]ethyl}-9H-purin-6-amine], the concentration for half-maximal inhibition (IC50) (at PI3Kδ (p110δ/p85α); in experiment [1] ([3H]-thymidine incorporation)) was less than 50 nM throughout.
As to `CC(Nc1ncnc2[nH]cnc12)c1cc(F)c2cccnc2c1-c1cccc(F)c1` (stereo not drawn) [Example 102, N-{1-[5-fluoro-8-(3-fluorophenyl)quinolin-7-yl]ethyl}-9H-purin-6-amine], the IC50 against PI3Kδ (p110δ/p85α) (separated isomer, 1st peak) is less than 50 nM; on PI3Kδ (p110δ/p85α) (separated isomer, 2nd peak) it was greater than 1000 nM.
Compound `COC(=O)NC1CCN(c2c(C(C)Nc3ncnc4[nH]cnc34)cc(Cl)c3cccnc23)CC1` (stereo not drawn) [Example 83, Methyl(1-{5-Chloro-7-[1-(9H-purin-6-ylamino)ethyl]quinolin-8-yl}piperidin-4-yl)carbamate bis(trifluoroacetate)] showed an IC50 against PI3Kδ (p110δ/p85α) of less than 50 nM.
In turn, `CC(Nc1ncnc2[nH]cnc12)c1cc(Cl)c2cccnc2c1N1CCN(C(=O)c2ccccn2)CC1` (stereo not drawn) [Example 95, N-(1-{5-Chloro-8-[4-(pyridin-2-ylcarbonyl)piperazin-1-yl]quinolin-7-yl}ethyl)-9H-purin-6-amine tris(trifluoroacetate)] displayed an IC50 against PI3Kδ (p110δ/p85α) of less than 50 nM.
